# In patent publication US20260091082A1, “CYCLIC PEPTIDE DERIVATIVE COMPOSITION FOR TREATING OR PREVENTING EYE DISEASE” (DKS Co. Ltd., priority 2022, published 2026):
# Where “and” joins values, the source holds several entries; their conditions need not be identical. Equal values may be shown once. Entries after “also recorded” stand apart in the source; their conditions may differ.
# Experiments:
# [1] = General condition observation (clinical signs) in anterior chamber aqueous humor pressure load rat model; type: in vivo, Rat; Slc: SD; design: key: —: No anormal sign; conditions: 1 mg/mL eye drop, right eye, per animal
# Protocol: • Species and strains: Rat; Slc: SD • Number of animals on arrival and sex: 50 males • Age in weeks at arrival: 6 weeks old • Body weight range at arrival: 147.2 to 170.0 g • Source: Japan SLC, Inc.
# The body weight of the animals was measured at a frequency of once a week or more, and the general condition observation was performed every day.
# • Administration route: Eyedrop administration, intravenous administration • Administration method (eyedrop): Eyedrop administration was performed on a treated eye (right eye) of a rat using a micropipette 4 times a day (at intervals of 1.5 hours or more). • Administration method (intravenous): The amount of administration solution, calculated from the body weight on the day of administration, was administered from the tail vein using a syringe and an injection needle about 30 minutes before ischemic load. • Time of administration: Administration was performed according to the following schedule.
# [2] = Body weight measurement during the CNV rat test; type: in vivo; conditions: for Body Weight (Average): 14 days 4 times a day
# Protocol: The appearance, behavior, and state of excrement or the like were observed every day.
# The body weight was measured on the animal arrival date, the preliminary housing end date (grouping date), the eyedrop administration start date, the laser irradiation date (Day 0), and the eyeball enucleation date (Day 14).
# [3] = tested on: laser-induced choroidal neovascularization rat model; assay: Laser-induced choroidal neovascularization rat model: CNV area in choroidal flat mount (FITC-dextran); type: in vivo; conditions: for Area of CNV Lesion, Mean: 14 days 4 times a day, N=10; for Area of CNV Lesion, Mean / Individual Value of CNV Area in Each Animal: 14 days after laser
# Protocol: The groups were set as in Table 8 below. Laser irradiation was performed on the right eye in 10 animals in each group. EYLEA (registered trademark) was administered intravitreally into the right eye of individuals in Group 2 immediately after laser irradiation. For the individuals of Groups 1, 3, and 4, eyedrop administration of the administration substances of each group was performed four times a day from the day of laser irradiation to the day before eyeball enucleation.
# Animals to be laser-irradiated were subjected to pupil dilation with Mydorin (registered trademark) P ophthalmic solution, and subjected to general anesthesia by intramuscular injection of a mixed solution of ketamine hydrochloride/xylazine hydrochloride (4:1, v/v) (1 mL/kg) into the thigh muscle. Then, fundus of the right eye was then observed using a slit lamp (SL-130, Carl Zeiss Meditec AG), and laser irradiation was performed at six locations using a green laser photocoagulation device (GYC-500, Nidek Co., Ltd.), avoiding thick capillaries of the retina. The laser conditions were a wavelength of 532 nm (green), a spot size of 50 μm, an irradiation time of 0.1 sec, and a laser irradiation intensity of 300 mW. Except for the individuals to be administered EYLEA (registered trademark), sodium hyaluronate (Hyalein (registered trademark) ophthalmic solution 0.3%, Santen Pharmaceutical Co., Ltd.) as an eye drop for treatment of corneal and conjunctival epithelial disorders was instilled into both eyes after laser irradiation.
# Levofloxacin hydrate (CRAVIT (registered trademark) 1.5% ophthalmic solution, Santen Pharmaceutical Co., Ltd.) as a broad-spectrum antibacterial eye drop and oxybuprocaine hydrochloride (Benoxil (registered trademark) 0.4% ophthalmic solution, Santen Pharmaceutical Co., Ltd.) as an ophthalmic topical anesthetic were once instilled into the right eye of rats in Group 2 (EYLEA (registered trademark) administration group) after end of laser irradiation, and then EYLEA (registered trademark) was intravitreally administered at a dose of 200 μg/5 μL/eye using a 33 G two-stage injection needle and a microsyringe (Ito Manufacturing Co., Ltd.). The microsyringe was washed with D-PBS before administration. Hyalein (registered trademark) ophthalmic solution 0.3% was instilled into both eyes after intravitreal administration.
# Eyedrop administration of the test substance and the negative control administration solution was performed in a volume of 5 μL/eye using a micropipette (Eppendorf Research Plus V, Eppendorf) at the administration period and the number of times determined for each group (see Group constitution table of Item (2)). At that time, since a test substance solution adheres to an outer side of the tip, care was taken so that the adhering test substance solution was wiped off with a Kimwipe once each time of eyedrop administration, and an excessive amount of the test substance solution was not instilled. In addition, although the tip of the pipette tip was sharp, care was taken not to damage the eyeball surface. Immediately before administration, the administration solution was lightly (about several seconds) centrifuged using a small microcentrifuge Wonder Spin, and the supernatant was used for administration.
# Fourteen days after laser irradiation (Day 14), under general anesthesia by intramuscular femoral administration (1 mL/kg) of a ketamine hydrochloride/xylazine hydrochloride (4:1, v/v) mixed solution, a 4% FITC-dextran solution was administered to the tail vein at a dose of 40 mg/l mL/animal.
# After 1 minute from the tail vein administration of the 4% FITC-dextran solution, rats were euthanized by excessive anesthesia by administration of 129.6 mg/mL sodium pentobarbital solution and the right eye ball was enucleated. The enucleated eyeball was fixed in a 4% paraformaldehyde phosphate buffer (FUJIFILM Wako Pure Chemical Corporation, hereinafter referred to as 4% PFA) for 12 to 30 hours at normal temperature. […]
structure (smiles),measurement,setting,value
CC[C@@]1(C)Oc2cc(ccc2O)C[C@H](NC)C(=O)N[C@@H](C(C)C)C(=O)N[C@@H]1C(=O)N[C@@H](CC(=O)O)C(=O)O [Compound 9],Clinical signs,"[1]; Day 0, animals 201-210 (test group 2, dosed on the 2 days before model creation)",—
same,Clinical signs,"[1]; Day 0, animals 301-310 (test group 3, dosed 13 days from the day after model creation)",—
same,Clinical signs,"[1]; Day 1, animals 201-210 (test group 2, dosed on the 2 days before model creation)",—
same,Clinical signs,"[1]; Day 1, animals 301-310 (test group 3, dosed 13 days from the day after model creation)",—
same,Clinical signs,"[1]; Day 2, animals 201-210 (test group 2, dosed on the 2 days before model creation)",—
same,Clinical signs,"[1]; Day 2, animals 301-310 (test group 3, dosed 13 days from the day after model creation)",—
same,Clinical signs,"[1]; Day 3, animals 201-210 (test group 2, dosed on the 2 days before model creation)",—
same,Clinical signs,"[1]; Day 3, animals 301-310 (test group 3, dosed 13 days from the day after model creation)",—
same,Clinical signs,"[1]; Day 4, animals 201-210 (test group 2, dosed on the 2 days before model creation)",—
same,Clinical signs,"[1]; Day 4, animals 301-310 (test group 3, dosed 13 days from the day after model creation)",—
same,Clinical signs,"[1]; Day 5, animals 201-210 (test group 2, dosed on the 2 days before model creation)",—
same,Clinical signs,"[1]; Day 5, animals 301-310 (test group 3, dosed 13 days from the day after model creation)",—
same,Clinical signs,"[1]; Day 6, animals 201-210 (test group 2, dosed on the 2 days before model creation)",—
same,Clinical signs,"[1]; Day 6, animals 301-310 (test group 3, dosed 13 days from the day after model creation)",—
same,Clinical signs,"[1]; Day −1, animals 201-210 (test group 2, dosed on the 2 days before model creation)",—
same,Clinical signs,"[1]; Day −1, animals 301-310 (test group 3, dosed 13 days from the day after model creation)",—
same,Clinical signs,"[1]; Day −2, animals 201-210 (test group 2, dosed on the 2 days before model creation)",—
same,Clinical signs,"[1]; Day −2, animals 301-310 (test group 3, dosed 13 days from the day after model creation)",—
same,Body Weight (Average),"[2]; Group 3, eye drop 5 μg/5 μL/eye, Day 0 (Laser injection)",152.66 g
same,Body Weight (Average),"[2]; Group 3, eye drop 5 μg/5 μL/eye, Day 14 (Enucleation)",184.36 g
same,Body Weight (Average),"[2]; Group 3, eye drop 5 μg/5 μL/eye, Day −3 or Day −2 (Grouping)",141.80 g
same,Weight (g) (Individual),"[2]; Group 3 individual animals, eye drop 5 μg/5 μL/eye, Enucleation (Day 14)",187.51 g and 200.36 g and 188.53 g and 178.12 g and 191.73 g and 185.42 g and 178.06 g and 179.74 g and 187.00 g and 167.09 g
same,Weight (g) (Individual),"[2]; Group 3 individual animals, eye drop 5 μg/5 μL/eye, Grouping (Day −3 or −2)",142.67 g and 150.51 g and 144.41 g and 133.08 g and 140.65 g and 139.40 g and 138.22 g and 145.52 g and 148.31 g and 135.25 g
same,Weight (g) (Individual),"[2]; Group 3 individual animals, eye drop 5 μg/5 μL/eye, Laser injection (Day 0)",156.06 g and 160.40 g and 156.65 g and 141.07 g and 149.62 g and 153.89 g and 146.49 g and 158.03 g and 159.18 g and 145.16 g
same,Body Weight (Average),"[2]; Group 4, eye drop 50 μg/5 μL/eye, Day 0 (Laser injection)",152.84 g
same,Body Weight (Average),"[2]; Group 4, eye drop 50 μg/5 μL/eye, Day 14 (Enucleation)",186.10 g
same,Body Weight (Average),"[2]; Group 4, eye drop 50 μg/5 μL/eye, Day −3 or Day −2 (Grouping)",141.65 g
same,Weight (g) (Individual),"[2]; Group 4 individual animals, eye drop 50 μg/5 μL/eye, Enucleation (Day 14)",171.86 g and 175.04 g and 182.32 g and 197.31 g and 192.55 g and 179.90 g and 198.77 g and 183.99 g and 193.77 g and 185.47 g
same,Weight (g) (Individual),"[2]; Group 4 individual animals, eye drop 50 μg/5 μL/eye, Grouping (Day −3 or −2)",133.40 g and 133.47 g and 138.61 g and 149.89 g and 142.02 g and 140.70 g and 144.50 g and 145.24 g and 149.29 g and 139.35 g
same,Weight (g) (Individual),"[2]; Group 4 individual animals, eye drop 50 μg/5 μL/eye, Laser injection (Day 0)",140.92 g and 141.64 g and 146.31 g and 156.67 g and 152.34 g and 152.92 g and 159.45 g and 160.10 g and 163.58 g and 154.47 g
same,"Area of CNV Lesion, Mean","[3]; Group 3, eye drop 5 μg/5 μL/eye (1 mg/mL)",471160.8 pixel
same,Individual Value of CNV Area in Each Animal,"[3]; Group 3 individual animals, eye drop 5 μg/5 μL/eye",330375.8 pixel and 515551.8 pixel and 492136.5 pixel and 558285.0 pixel and 496494.0 pixel and 466828.5 pixel and 460996.3 pixel and 460127.0 pixel and 449544.0 pixel and 481268.8 pixel
same,"Area of CNV Lesion, Mean","[3]; Group 4, eye drop 50 μg/5 μL/eye (10 mg/mL)",444173.4 pixel
same,Individual Value of CNV Area in Each Animal,"[3]; Group 4 individual animals, eye drop 50 μg/5 μL/eye",313878.7 pixel and 591175.3 pixel and 382504.5 pixel and 527509.5 pixel and 426003.0 pixel and 447473.0 pixel and 394615.5 pixel and 494652.3 pixel and 438691.5 pixel and 425230.3 pixel
same,"CNV area compared with Group 1 (saline) / drug efficacy, in words","[3]; eyedrop 1 mg/mL (Group 3) and 10 mg/mL (Group 4), Dunnett's test",no significant difference in CNV area was observed; also recorded: no drug efficacy on CNV area was observed
same,"Dose dependence of CNV area reduction, in words","[3]; eyedrop 1 mg/mL and 10 mg/mL, 4 times/day for 14 days",reduction in CNV area correlated with the eyedrop administration dose was confirmed
